Reference: publication PMC9616531 (Plant Biotechnology Journal, 2022)

Test system: UGT72B23
Test: UDP-Glo glycosyltransferase assay
Assay type: biochemical, Camellia sinensis
Details: read-out: apparent Km; UDP-glucose co-substrate, pH 7.5, 40 °C

| Km [µM] | Compound |
| --- | --- |
| 31.2 | O=C(O[C@@H]1Cc2c(O)cc(O)cc2O[C@@H]1c1ccc(O)c(O)c1)c1cc(O)c(O)c(O)c1 [epicatechin gallate] |
| 27.9 | O=C(O[C@@H]1Cc2c(O)cc(O)cc2O[C@@H]1c1cc(O)c(O)c(O)c1)c1cc(O)c(O)c(O)c1 [epigallocatechin gallate] |
